The text below walks through data of the OPERA property sets (Mansouri et al. 2018).

Conditions in one series: not given
`C#CC1(O)CCCCC1` returned a boiling point of 174 °C and a melting point of 31.5 °C.
As to `CCC(C)(C)O`, the boiling point amounted to 102 °C, the log10 Henry constant (atm·m³/mol) is -4.86, the log10 vapour pressure (mmHg) was determined as 1.22 and the melting point was -9.1 °C. Further, the ready biodegradability entry is listed as “not readily biodegradable”.
Take `Oc1cc(Cl)c(Cl)c(Cl)c1`: the boiling point turned out to be 275 °C, the log10 Koc (L/kg) worked out at 3.56 and the melting point was determined as 101 °C.
The molecule `Cc1ccc2cc(N(C)C)ccc2n1` returned a boiling point of 319 °C and a melting point of 101 °C.
Turning to `C[Si](C)(C)O[Si](C)(C)O[Si](C)(C)O[Si](C)(C)O[Si](C)(C)C`, the boiling point was found to be 232 °C, the log10 vapour pressure (mmHg) is -0.991 and the melting point is -80 °C.
`CC(Cl)CCCCl` (stereo not drawn) gave a boiling point of 162 °C.
Regarding `O=Cc1cc(Cl)ccc1Cl`, the boiling point was 232 °C and the melting point is 58 °C.
The molecule `CCN(C=O)CC` yielded a boiling point of 178 °C and a log10 vapour pressure (mmHg) of 0.0821.
`Nc1c(Br)cc([N+](=O)[O-])cc1[N+](=O)[O-]` displayed a melting point of 154 °C.
Still for that read-out and setting: the same measure for `CC1(C)O[C@@H]2C[C@H]3[C@@H]4CCC5=CC(=O)C=C[C@]5(C)[C@H]4[C@@H](O)C[C@]3(C)[C@]2(C(=O)CO)O1`: 274 °C.
In turn, `CCOC(CN(CC)CC)OCC` returned a boiling point of 194 °C.
Take `CCCC(=NOCC)C1=C(O)CC(CC(C)SCC)CC1=O` (stereo not drawn): the log10 Koc (L/kg) came to 2 and the log10 vapour pressure (mmHg) was -6.8.
Turning to `CCCCCCCCCCCCCCCCCCCCCCC`, the boiling point came out at 380 °C, the log10 biodegradation half-life (days) is 2.16, the log10 vapour pressure (mmHg) was -4.76 and the melting point was found to be 47.6 °C. In addition, the ready biodegradability entry is “readily biodegradable”.
Turning to `ClCc1ccc(Cl)cc1Cl`, the boiling point was found to be 248 °C, the log10 vapour pressure (mmHg) was -1.49 and the melting point is -2.6 °C.
Regarding `Nc1cc(N)cc(C(=O)O)c1`, the melting point turned out to be 228 °C.
Same read-out and setting: in the case of `COc1c(OC)c(OC(C)=O)c2c(OC)cccc2c1OC(C)=O` it was 69.5 °C.
Consider `CCCCOC(=O)CC`, for which the boiling point was 147 °C, the log10 vapour pressure (mmHg) was found to be 0.645 and the melting point is -89 °C.
In the case of `O=C(C=NO)c1ccccc1`, the melting point is 129 °C.
Consider `CCCCCCCCS`, for which the boiling point was 199 °C, the log10 vapour pressure (mmHg) is -0.372 and the melting point was -49.2 °C.
As to `O=C(O)c1ccccc1O`, the log10 Koa turned out to be 7.44, the log10 vapour pressure (mmHg) is -4.09, the melting point was 158 °C and the ready biodegradability result was “readily biodegradable”.
As for `CN(C)N`, the boiling point was found to be 63.9 °C, the log10 vapour pressure (mmHg) amounted to 2.21, the melting point was -58 °C and the ready biodegradability entry is on record as “not readily biodegradable”.
Consider `FC(Cl)(Cl)I`, for which the boiling point is 90 °C and the melting point was -107 °C.
Regarding `C=C(Cl)C(C)Cl` (stereo not drawn), the boiling point came out at 112 °C.
The molecule `CCCCCCCCCCCCCCCCCC(CC)c1ccccc1` (stereo not drawn) had a melting point of 29.3 °C.
As to `CCC(C)c1ccccc1` (stereo not drawn), the boiling point was 174 °C, the log10 vapour pressure (mmHg) was 0.243 and the melting point is -82.7 °C.
`COc1ccc(NC(N)=O)cc1Cl`: the log10 Koc (L/kg) came to 2.
`CCCCC1CO1` (stereo not drawn) gave a melting point of 94 °C.
On to `ClC(c1ccccc1)(c1ccccc1)c1ccccc1`, for which the boiling point stood at 310 °C, the melting point was found to be 114 °C and the ready biodegradability result is recorded as “not readily biodegradable”.
As to `O=C1OCCN1/N=C/c1ccc([N+](=O)[O-])o1`, the melting point came out at 255 °C.
`CS(C)(=O)=O` displayed a boiling point of 238 °C and a melting point of 109 °C.
In the case of `C=C(C)C1CCC(C)(O)CC1` (stereo not drawn), the boiling point is 210 °C and the melting point stood at 32.5 °C.
`FC(F)(Br)C(F)(Cl)Br` (stereo not drawn): the boiling point worked out at 93 °C.
`C[C@@](Cc1ccc(O)c(O)c1)(NN)C(=O)O` yielded a melting point of 208 °C.
`c1ccc(O[Si](Oc2ccccc2)(Oc2ccccc2)Oc2ccccc2)cc1`: the boiling point was determined as 417 °C and the melting point came to 49 °C.
Consider `Nc1cccc(O)c1`, for which the melting point came to 123 °C and the ready biodegradability entry is “not readily biodegradable”.
`O=C(O)c1cccc(Br)c1`: the log10 vapour pressure (mmHg) is -4.04 and the melting point was found to be 155 °C.
`Cc1c2ccncc2c(C)c2c1[nH]c1ccccc12` returned a melting point of 313 °C.
Turning to `c1ccc(Oc2nc(Oc3ccccc3)nc(Oc3ccccc3)n2)cc1`, the melting point is 234 °C.
`c1ccc(-c2nc3ccccc3[nH]2)cc1` came in with a melting point of 293 °C.
For the molecule `N#CC#N`, the log10 vapour pressure (mmHg) came to 3.63 and the melting point is -27.9 °C.
In turn, `O=C(O)CCCc1c[nH]c2ccccc12` yielded a melting point of 124 °C.
In turn, `CCCCC(C)(C)O` gave a boiling point of 143 °C and a log10 vapour pressure (mmHg) of 0.317.

Staying with this series, now noted: fish.
In the case of `Clc1ccc(Oc2cc(Cl)c(Cl)cc2Cl)cc1`, the log10 biotransformation half-life (days) amounted to 1.93.
For the molecule `Oc1cc(Cl)cc(Cl)c1`, the log10 BCF turned out to be 1.91 and the log10 biotransformation half-life (days) was -0.91.
The molecule `O=C1CCCCC1C1=CCCCC1` (stereo not drawn) registered a log10 BCF of 0.7.
In the case of `COP(=S)(OC)Oc1c(Cl)cc(C)cc1Cl`, the log10 BCF worked out at 2.86 and the log10 biotransformation half-life (days) was -0.11.
`CC(C)c1ccc2ccccc2c1` registered a log10 biotransformation half-life (days) of 1.
For `ClC(c1ccccc1)(c1ccccc1)c1ccccc1`, the log10 BCF came out at 2.63 and the log10 biotransformation half-life (days) is -0.15.
The molecule `Nc1cccc(O)c1` showed a log10 BCF of 1.34.
